Laboratory results reported in patent publication US20180303824A1, “Compositions for deterring abuse of pharmaceutical products and alcohol” (priority 2015, published 2018).
Structures can show the parent of a compound that is named as a salt.

How the values were obtained:
[1] = pH 3
Procedure: Into 10 mL of drug solution (containing 25 mg of tramadol HCl), 50 mg of talc was added and vortexed for 5 seconds followed by centrifugation @1500 rpm for 5 minutes. The solution was filtered through a 0.2 μm syringe filter; 0.5 ml of the supernatant solution was diluted with 10 ml of solvent, and then analyzed for drug concentration by UV spectroscopy @271 nm.
Into 10 mL of drug solution (containing 25 mg of tramadol HCl), 50 mg of zinc acetate was added and vortexed for 5 seconds followed by centrifugation @1500 rpm for 5 minutes. The solution was filtered through a 0.2 μm syringe filter; 0.5 ml of the supernatant solution was diluted with 10 ml of solvent, and then analyzed for drug concentration by UV spectroscopy @271 nm.
The solution was filtered through a 0.2 μm syringe filter; 0.5 ml of the supernatant solution was diluted with 10 ml of solvent, and then analyzed for drug concentration by UV spectroscopy @271 nm.

[2] = Electrical conductivity of clay dispersions and drug solutions; assay type: physicochemical; details: for Conductivity, Mean / Conductivity, Trial 1 / Conductivity, Trial 2 / Conductivity, Trial 3 / pH, Mean / pH, Trial 1 / pH, Trial 2 / pH, Trial 3: dispersions

| Compound | % Bound [1] [%] | Cond. ([2]; drug solution in 0.1N HCl, 100 μg/mL) [mV] | Cond. ([2]; drug solution in 0.1N HCl, 200 μg/mL) [mV] | Cond. ([2]; drug solution in 0.1N HCl, 250 μg/mL) [mV] | Cond. ([2]; drug solution in 0.1N HCl, 500 μg/mL) [mV] | Cond. ([2]; drug solution in 0.1N HCl, 1000 μg/mL) [mV] | Cond. ([2]; drug solution in ultrapure deionized water, 100 μg/mL) [mV] | Cond. ([2]; drug solution in ultrapure deionized water, 200 μg/mL) [mV] | Cond. ([2]; drug solution in ultrapure deionized water, 250 μg/mL) [mV] | Cond. ([2]; drug solution in ultrapure deionized water, 500 μg/mL) [mV] | Cond. ([2]; drug solution in ultrapure deionized water, 1000 μg/mL) [mV] | Conductivity, Mean [2] [mV] | Conductivity, Trial 1 [2] [mV] | Conductivity, Trial 2 [2] [mV] | Conductivity, Trial 3 [2] [mV] | pH, Mean [2] | pH, Trial 1 [2] | pH, Trial 2 [2] | pH, Trial 3 [2] |
| --- | --- | --- | --- | --- | --- | --- | --- | --- | --- | --- | --- | --- | --- | --- | --- | --- | --- | --- | --- |
| CC(=O)[O-].CC(=O)[O-].[Zn+2] [Zinc Acetate] | 2.9 | – | – | – | – | – | – | – | – | – | – | – | – | – | – | – | – | – | – |
| CN(C)CCOC(c1ccccc1)c1ccccc1 [diphenhydramine HCl] | – | 334.4 | 333.5 | 333.2 | 333.7 | 332.1 | 28.2 | 24.5 | 21.3 | 21.3 | 31.3 | – | – | – | – | – | – | – | – |
| [Cl-].[Na+] [NaCl] | – | – | – | – | – | – | – | – | – | – | – | 40.3 | 34.7 | 33.6 | 52.6 | 6.38 | 6.48 | 6.50 | 6.16 |
| O=C([O-])[O-].[Na+].[Na+] [Na2CO3] | – | – | – | – | – | – | – | – | – | – | – | −247.7 | −247.4 | −248.3 | −247.5 | 11.40 | 11.40 | 11.42 | 11.40 |
